How the values were obtained:
EphA2 = EphA2 (Homo sapiens, UniProt P29317); assay: Kinase assay, EphA2 (33P-ATP incorporation or luciferase-coupled ATP consumption); assay type: biochemical
Description: (§1) Kinase assays were performed by measurement of incorporation of γ-^33P ATP into immobilized myelin basic protein (MBP). […] Plates were washed 3× with 100 μl TBS. […] Compound dilutions were performed in DMSO and added to assay wells to a final DMSO concentration of 1%. Each data point was measured in duplicate, and at least two duplicate assays were performed for each individual compound determination. Enzyme was added to final concentrations of 10 nM or 20 nM, for example. A mixture of unlabeled ATP and γ-^33P ATP was added to start the reaction (2×10^6 cpm of γ-^33P ATP per well (3000 Ci/mmole) and either 10 μM or 30 μM unlabeled ATP, typically. The reactions were carried out for 1 hour at room temperature with shaking. Plates were washed 7× with TBS, followed by the addition of 50 μl/well scintillation fluid (Wallac). Plates were read using a Wallac Trilux counter. This is only one format of such assays, various other formats are possible, as known to one of ordinary skill in the art.
(§2) Tyrosine kinase activity is determined by 1) measurement of kinase-dependent ATP consumption by in the presence of a generic substrate such as, polyglutamic acid, tyrosine, 4:1 (pEY), by luciferase/luciferin-mediated chemiluminescence or; 2) incorporation of radioactive phosphate derived from ^33P-ATP into a generic substrate which has been adsorbed onto the well surface of polystyrene microtiter plates. Phosphorylated substrate products are quantified by scintillation spectrometry.
(§3) Kinase activity and compound inhibition are investigated using one or more assay formats. The ATP concentrations for each assay are selected to be close to the Michaelis-Menten constant (KM) for each individual kinase. Dose-response experiments are performed at 10 different inhibitor concentrations in a 384-well plate format. […] Exemplary kinase assays are described below. KDR Assay

IRK = IRK (Homo sapiens, UniProt P06213); assay: Kinase assay, IRK; assay type: biochemical
Description: as §3

PDGFR alpha = PDGFR alpha (Homo sapiens, UniProt P16234); assay: Kinase assay, PDGFR alpha (33P-ATP incorporation or luciferase-coupled ATP consumption); assay type: biochemical; conditions: read-out: PDGF-R-A IC50
Description: as §1, §2, §3

EGFR = EGFR (Homo sapiens, UniProt P00533); assay: Kinase assay, EGFR (33P-ATP incorporation or luciferase-coupled ATP consumption); assay type: biochemical
Description: as §1, §2, §3

Fyn = Fyn (Homo sapiens, UniProt P06241); assay: Kinase assay, Fyn; assay type: biochemical
Description: as §3

[1] = target: T1, KDR (baculovirus expressed human KDR kinase domain D807-V1356) (Homo sapiens, UniProt P35968); assay: biochemical
T1 construct: human KDR kinase domain D807-V1356; host or cells: baculovirus expression system
Description: as §3
KDR biochemical activity was assessed using a Luciferase-Coupled Chemiluminescent Kinase assay (LCCA) format. Kinase activity was measured as the percent ATP remaining following the kinase reaction. Remaining ATP was detected by luciferase-luciferin-coupled chemiluminescence. […] The mixture is incubated at ambient temperature for 4 hours after which 20 uL luciferase-luciferin mix is added and the chemiluminescent signal read using a Wallac Victor^2 reader.

FGFR1 = FGFR1 (Homo sapiens, UniProt P11362); assay: Kinase assay, FGFR1 (33P-ATP incorporation or luciferase-coupled ATP consumption); assay type: biochemical
Description: as §1, §2, §3

T1 sequence (P35968 807-1356): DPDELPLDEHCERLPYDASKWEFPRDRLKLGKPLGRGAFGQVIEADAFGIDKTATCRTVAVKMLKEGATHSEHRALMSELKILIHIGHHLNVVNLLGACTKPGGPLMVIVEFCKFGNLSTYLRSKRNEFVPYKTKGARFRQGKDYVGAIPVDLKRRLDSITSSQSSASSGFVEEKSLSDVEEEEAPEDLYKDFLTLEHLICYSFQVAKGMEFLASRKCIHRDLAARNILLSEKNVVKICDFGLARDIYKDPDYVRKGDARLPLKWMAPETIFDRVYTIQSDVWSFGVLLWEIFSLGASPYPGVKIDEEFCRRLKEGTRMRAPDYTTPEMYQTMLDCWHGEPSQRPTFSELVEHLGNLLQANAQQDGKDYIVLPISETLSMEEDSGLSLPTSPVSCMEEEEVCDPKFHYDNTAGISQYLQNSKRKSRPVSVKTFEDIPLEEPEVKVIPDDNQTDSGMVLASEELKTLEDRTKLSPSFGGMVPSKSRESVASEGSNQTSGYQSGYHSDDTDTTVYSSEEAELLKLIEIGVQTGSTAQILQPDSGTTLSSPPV
Sequence of EGFR (P00533 25-1210, species assumed): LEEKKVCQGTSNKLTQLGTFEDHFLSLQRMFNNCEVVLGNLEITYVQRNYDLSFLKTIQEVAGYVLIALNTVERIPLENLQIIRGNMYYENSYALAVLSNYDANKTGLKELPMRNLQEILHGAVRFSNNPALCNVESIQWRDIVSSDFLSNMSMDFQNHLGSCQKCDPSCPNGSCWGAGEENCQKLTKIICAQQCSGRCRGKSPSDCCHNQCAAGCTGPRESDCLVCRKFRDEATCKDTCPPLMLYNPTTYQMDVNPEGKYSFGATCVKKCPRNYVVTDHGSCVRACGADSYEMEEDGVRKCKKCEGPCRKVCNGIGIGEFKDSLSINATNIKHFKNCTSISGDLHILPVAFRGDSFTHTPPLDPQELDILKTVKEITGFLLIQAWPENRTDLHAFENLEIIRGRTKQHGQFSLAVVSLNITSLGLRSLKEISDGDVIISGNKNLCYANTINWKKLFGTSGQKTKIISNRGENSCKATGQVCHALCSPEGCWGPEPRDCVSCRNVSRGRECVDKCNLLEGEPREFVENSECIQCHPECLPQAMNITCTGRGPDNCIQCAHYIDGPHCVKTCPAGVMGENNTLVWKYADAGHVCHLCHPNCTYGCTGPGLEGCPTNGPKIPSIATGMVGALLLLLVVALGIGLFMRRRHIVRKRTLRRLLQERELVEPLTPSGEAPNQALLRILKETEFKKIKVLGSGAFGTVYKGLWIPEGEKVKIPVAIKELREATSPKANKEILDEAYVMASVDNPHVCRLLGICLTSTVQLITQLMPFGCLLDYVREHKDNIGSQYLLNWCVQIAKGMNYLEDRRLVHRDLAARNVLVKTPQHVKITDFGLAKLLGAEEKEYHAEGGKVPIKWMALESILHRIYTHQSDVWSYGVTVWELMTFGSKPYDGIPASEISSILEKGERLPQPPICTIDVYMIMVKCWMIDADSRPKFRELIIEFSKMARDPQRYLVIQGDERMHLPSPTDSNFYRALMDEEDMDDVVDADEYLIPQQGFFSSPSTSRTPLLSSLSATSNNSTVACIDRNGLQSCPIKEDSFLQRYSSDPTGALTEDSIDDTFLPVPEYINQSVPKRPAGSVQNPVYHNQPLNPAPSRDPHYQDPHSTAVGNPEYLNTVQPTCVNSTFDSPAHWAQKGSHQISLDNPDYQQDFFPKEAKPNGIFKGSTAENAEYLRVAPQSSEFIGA
Sequence of EphA2 (P29317 24-976, species assumed): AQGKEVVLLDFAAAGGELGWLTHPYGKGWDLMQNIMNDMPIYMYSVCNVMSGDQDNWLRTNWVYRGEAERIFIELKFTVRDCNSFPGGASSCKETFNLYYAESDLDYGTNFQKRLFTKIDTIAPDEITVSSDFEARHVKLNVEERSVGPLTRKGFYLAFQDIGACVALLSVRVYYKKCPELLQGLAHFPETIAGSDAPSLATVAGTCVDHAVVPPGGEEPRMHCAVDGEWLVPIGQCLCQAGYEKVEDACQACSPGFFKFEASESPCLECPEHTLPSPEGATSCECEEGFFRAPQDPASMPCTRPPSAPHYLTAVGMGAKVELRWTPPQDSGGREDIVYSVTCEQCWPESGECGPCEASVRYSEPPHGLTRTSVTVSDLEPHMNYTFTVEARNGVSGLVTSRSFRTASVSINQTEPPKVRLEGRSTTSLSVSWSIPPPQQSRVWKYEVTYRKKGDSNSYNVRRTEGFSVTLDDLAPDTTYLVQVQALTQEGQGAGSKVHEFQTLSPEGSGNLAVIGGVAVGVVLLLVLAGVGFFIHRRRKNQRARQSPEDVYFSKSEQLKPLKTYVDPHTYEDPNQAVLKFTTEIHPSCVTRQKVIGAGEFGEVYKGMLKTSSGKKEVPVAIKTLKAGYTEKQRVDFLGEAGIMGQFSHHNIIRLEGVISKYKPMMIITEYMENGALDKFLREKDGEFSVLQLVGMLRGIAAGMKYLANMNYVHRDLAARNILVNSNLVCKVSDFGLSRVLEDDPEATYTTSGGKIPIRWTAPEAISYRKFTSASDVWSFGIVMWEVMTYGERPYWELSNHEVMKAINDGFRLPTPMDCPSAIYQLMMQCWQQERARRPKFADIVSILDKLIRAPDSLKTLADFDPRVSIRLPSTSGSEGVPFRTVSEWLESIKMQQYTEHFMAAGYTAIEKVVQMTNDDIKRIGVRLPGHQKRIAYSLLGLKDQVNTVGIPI
Sequence of FGFR1 (P11362 22-822, species assumed): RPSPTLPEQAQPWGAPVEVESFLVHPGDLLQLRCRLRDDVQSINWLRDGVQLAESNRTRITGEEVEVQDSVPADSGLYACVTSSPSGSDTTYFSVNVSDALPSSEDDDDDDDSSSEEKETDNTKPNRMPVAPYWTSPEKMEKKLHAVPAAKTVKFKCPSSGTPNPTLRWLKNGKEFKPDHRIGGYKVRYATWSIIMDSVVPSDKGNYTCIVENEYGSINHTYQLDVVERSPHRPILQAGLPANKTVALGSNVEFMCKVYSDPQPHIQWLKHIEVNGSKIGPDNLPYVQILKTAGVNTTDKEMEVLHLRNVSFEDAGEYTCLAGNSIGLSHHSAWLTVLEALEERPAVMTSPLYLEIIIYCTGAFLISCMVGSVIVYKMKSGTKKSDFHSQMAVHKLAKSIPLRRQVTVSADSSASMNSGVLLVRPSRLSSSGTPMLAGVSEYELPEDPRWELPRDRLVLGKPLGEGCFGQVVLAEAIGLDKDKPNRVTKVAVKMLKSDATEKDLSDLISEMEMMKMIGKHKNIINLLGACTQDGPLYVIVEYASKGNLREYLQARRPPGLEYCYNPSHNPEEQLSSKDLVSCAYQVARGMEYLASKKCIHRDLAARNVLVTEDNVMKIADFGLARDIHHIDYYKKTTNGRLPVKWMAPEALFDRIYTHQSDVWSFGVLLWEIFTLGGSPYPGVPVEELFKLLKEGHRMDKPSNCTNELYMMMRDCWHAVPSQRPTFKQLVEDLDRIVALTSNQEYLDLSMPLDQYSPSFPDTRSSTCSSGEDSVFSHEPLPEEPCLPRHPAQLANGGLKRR
Sequence of PDGFR alpha (P16234 24-1089): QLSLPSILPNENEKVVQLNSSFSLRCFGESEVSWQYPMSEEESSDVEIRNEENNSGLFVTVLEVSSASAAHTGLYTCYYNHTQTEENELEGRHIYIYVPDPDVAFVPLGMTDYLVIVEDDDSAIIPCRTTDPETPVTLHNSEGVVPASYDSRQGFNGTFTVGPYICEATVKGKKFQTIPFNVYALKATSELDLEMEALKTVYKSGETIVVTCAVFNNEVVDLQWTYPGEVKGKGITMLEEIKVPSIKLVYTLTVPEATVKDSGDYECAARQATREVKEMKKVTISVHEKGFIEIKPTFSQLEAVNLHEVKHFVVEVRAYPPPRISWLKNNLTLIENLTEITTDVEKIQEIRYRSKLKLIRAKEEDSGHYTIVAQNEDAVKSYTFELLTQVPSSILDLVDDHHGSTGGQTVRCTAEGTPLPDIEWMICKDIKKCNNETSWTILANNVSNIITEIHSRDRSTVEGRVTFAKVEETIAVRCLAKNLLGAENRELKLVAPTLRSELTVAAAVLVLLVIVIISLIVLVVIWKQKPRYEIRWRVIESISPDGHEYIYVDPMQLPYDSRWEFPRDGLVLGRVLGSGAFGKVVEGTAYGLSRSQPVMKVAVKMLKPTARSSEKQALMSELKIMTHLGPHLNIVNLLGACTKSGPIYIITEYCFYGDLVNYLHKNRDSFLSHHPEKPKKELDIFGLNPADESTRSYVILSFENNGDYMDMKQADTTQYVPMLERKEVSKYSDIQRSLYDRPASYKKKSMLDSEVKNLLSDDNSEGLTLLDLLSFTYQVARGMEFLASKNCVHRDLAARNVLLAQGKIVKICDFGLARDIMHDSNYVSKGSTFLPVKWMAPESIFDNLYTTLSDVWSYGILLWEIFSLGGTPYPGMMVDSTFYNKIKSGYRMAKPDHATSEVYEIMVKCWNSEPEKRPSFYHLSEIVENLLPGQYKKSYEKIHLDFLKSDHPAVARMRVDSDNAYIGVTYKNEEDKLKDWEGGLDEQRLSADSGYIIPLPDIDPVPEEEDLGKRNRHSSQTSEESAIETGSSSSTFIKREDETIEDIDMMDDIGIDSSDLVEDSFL
Sequence of Fyn (P06241 whole entry, species assumed): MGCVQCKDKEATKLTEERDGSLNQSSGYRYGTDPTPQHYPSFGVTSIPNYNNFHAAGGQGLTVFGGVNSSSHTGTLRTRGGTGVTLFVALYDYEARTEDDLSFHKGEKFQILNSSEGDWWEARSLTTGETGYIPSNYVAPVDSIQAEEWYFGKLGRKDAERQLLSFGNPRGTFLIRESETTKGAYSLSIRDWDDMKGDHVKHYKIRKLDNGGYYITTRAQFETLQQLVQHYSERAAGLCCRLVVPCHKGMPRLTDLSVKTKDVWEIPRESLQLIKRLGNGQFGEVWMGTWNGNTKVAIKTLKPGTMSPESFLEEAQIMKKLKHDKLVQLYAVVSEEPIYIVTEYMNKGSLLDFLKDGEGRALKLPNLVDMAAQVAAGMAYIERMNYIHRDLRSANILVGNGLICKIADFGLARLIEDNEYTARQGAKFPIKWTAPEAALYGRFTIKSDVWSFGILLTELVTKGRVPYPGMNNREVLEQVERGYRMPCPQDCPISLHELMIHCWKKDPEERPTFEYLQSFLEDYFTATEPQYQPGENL

IC50 (EphA2) | IC50 (IRK) | IC50 (PDGFR alpha) | IC50 (EGFR) | IC50 (Fyn) | IC50 [1] | IC50 (FGFR1) | SMILES
50 to 500 nM | 0.5 to 5 µM | < 50 nM | 50 to 500 nM | < 50 nM | < 50 nM | < 50 nM | COCCN1CCC(Nc2ccc3c(c2)/C(=C(\c2cccc(F)c2)c2nc(C)c[nH]2)C(=O)N3)CC1 [Entry 70, (3Z)-3-[(3-fluorophenyl)(4-methyl-1H-imidazol-2-yl)methylidene]-5-({1-[2-(methyloxy)ethyl]piperidin-4-yl}amino)-1,3-dihydro-2H-indol-2-one]
500 to 5000 nM | > 5 µM | < 50 nM | > 5000 nM | 50 to 500 nM | < 50 nM | < 50 nM | COCCN1CCC(Nc2ccc3c(c2)/C(=C(\c2ccc(C(F)(F)F)cc2)c2ncc[nH]2)C(=O)N3)CC1 [Entry 71]
500 to 5000 nM | > 5 µM | < 50 nM | > 5000 nM | 50 to 500 nM | < 50 nM | < 50 nM | COCCN1CCC(Nc2ccc3c(c2)/C(=C(\c2ccccc2)c2nc4cc(Cl)ccc4[nH]2)C(=O)N3)CC1 [Entry 72]
500 to 5000 nM | > 5 µM | < 50 nM | 50 to 500 nM | < 50 nM | < 50 nM | < 50 nM | COCCN1CCC(Nc2ccc3c(c2)/C(=C(\c2cc(F)cc(F)c2)c2ncc[nH]2)C(=O)N3)CC1 [Entry 75, (3Z)-3-[(3,5-difluorophenyl)(1H-imidazol-2-yl)methylidene]-5-({1-[2-(methyloxy)ethyl]piperidin-4-yl}amino)-1,3-dihydro-2H-indol-2-one]
500 to 5000 nM | 0.5 to 5 µM | < 50 nM | 50 to 500 nM | < 50 nM | < 50 nM | < 50 nM | COCCN1CCC(Nc2ccc3c(c2)/C(=C(\c2cc(F)cc(F)c2)c2nc(C)c[nH]2)C(=O)N3)CC1 [Entry 76]
50 to 500 nM | 0.5 to 5 µM | < 50 nM | 50 to 500 nM | < 50 nM | < 50 nM | < 50 nM | COCCN1CCC(Nc2ccc3c(c2)/C(=C(\c2ccc(C)cc2)c2nc(C)c[nH]2)C(=O)N3)CC1 [Entry 77, (3Z)-3-[(4-methyl-1H-imidazol-2-yl)(4-methylphenyl)methylidene]-5-({1-[2-(methyloxy)ethyl]piperidin-4-yl}amino)-1,3-dihydro-2H-indol-2-one]
500 to 5000 nM | > 5 µM | < 50 nM | > 5000 nM | 50 to 500 nM | < 50 nM | 50 to 500 nM | COCCN1CCC(Nc2ccc3c(c2)/C(=C(\c2ccc(F)cc2)c2ncc[nH]2)C(=O)N3)CC1 [Entry 78]
500 to 5000 nM | > 5 µM | < 50 nM | > 5000 nM | 50 to 500 nM | < 50 nM | 50 to 500 nM | COCCN1CCC(Nc2ccc3c(c2)/C(=C(\c2ccc(F)c(F)c2)c2ncc[nH]2)C(=O)N3)CC1 [Entry 79]
500 to 5000 nM | > 5 µM | 50 to 500 nM | > 5000 nM | 50 to 500 nM | < 50 nM | 50 to 500 nM | COCCN1CCC(Nc2ccc3c(c2)/C(=C(\c2ccc(F)c(Cl)c2)c2ncc[nH]2)C(=O)N3)CC1 [Entry 80]
50 to 500 nM | 0.5 to 5 µM | < 50 nM | > 5000 nM | < 50 nM | < 50 nM | < 50 nM | O=C1Nc2ccc(NC3CCNCC3)cc2/C1=C(\c1cccc(F)c1)c1ncc[nH]1 [Entry 81, (3Z)-3-[(3-fluorophenyl)(1H-imidazol-2-yl)methylidene]-5-(piperidin-4-ylamino)-1,3-dihydro-2H-indol-2-one]
500 to 5000 nM | > 5 µM | 50 to 500 nM | > 5000 nM | 50 to 500 nM | 50 to 500 nM | 50 to 500 nM | O=C1Nc2ccc(NC3CCN(CCN4CCCCC4)CC3)cc2/C1=C(\c1cccc(F)c1)c1ncc[nH]1 [Entry 82]

Reference: patent US7626031B2, “Substituted 3-(diarylmethylene)indolin-2-ones and methods of their use” (Symphony Evolution, Inc., priority 2002, dated 2009)
